pIC50, pKi: −log10 of the molar value. Values after ≈ are worked out from the molar mass of the structure shown. Active and inactive are the calls of the source. The rule behind the calls is not given here.
Experiments:
Klebsiella pneumoniae = experiment: Antibacterial activity against Klebsiella pneumoniae assessed as diameter of inhibition zone measured after 24 hrs by agar disc diffusion method; type: functional
[1] = biological target: 72 kDa type IV collagenase (Homo sapiens, UniProt P08253); experiment: Inhibition of human MMP2 using (7-methoxycoumarin-4-yl)acetyl-Pro-Leu-Gly-Leu-(3-(2,4-dinitrophenyl)-L-2,3-diamino-propionyl)Ala-Arg-NH2 as substrate preincubated for 30 mins followed by substrate addition and measured by fluorescence assay
Sequence of 72 kDa type IV collagenase (P08253 whole entry, the tested form may be a part): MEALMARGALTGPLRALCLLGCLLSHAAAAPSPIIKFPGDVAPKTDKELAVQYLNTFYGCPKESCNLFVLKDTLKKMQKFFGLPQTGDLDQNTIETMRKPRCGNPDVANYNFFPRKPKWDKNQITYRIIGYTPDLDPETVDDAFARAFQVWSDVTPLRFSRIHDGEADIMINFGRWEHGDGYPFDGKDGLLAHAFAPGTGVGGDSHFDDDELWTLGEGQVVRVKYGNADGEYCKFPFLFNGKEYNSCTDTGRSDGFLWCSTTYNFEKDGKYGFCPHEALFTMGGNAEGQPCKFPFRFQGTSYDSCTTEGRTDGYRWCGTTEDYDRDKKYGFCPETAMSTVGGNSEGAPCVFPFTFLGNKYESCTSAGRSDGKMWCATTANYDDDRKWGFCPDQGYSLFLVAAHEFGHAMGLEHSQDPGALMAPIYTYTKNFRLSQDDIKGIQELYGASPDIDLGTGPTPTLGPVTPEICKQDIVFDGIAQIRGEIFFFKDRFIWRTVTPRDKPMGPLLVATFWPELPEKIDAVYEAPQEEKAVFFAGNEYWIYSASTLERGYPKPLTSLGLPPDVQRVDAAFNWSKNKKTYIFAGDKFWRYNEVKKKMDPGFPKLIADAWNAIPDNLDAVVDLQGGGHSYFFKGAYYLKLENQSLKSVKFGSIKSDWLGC

Enterobacter cloacae = experiment: Antibacterial activity against Enterobacter cloacae assessed as diameter of inhibition zone measured after 24 hrs by agar disc diffusion method; type: functional
Collagenase 3 = Collagenase 3 (Homo sapiens, UniProt P45452); experiment: Inhibition of human MMP13 using (7-methoxycoumarin-4-yl)acetyl-Pro-Leu-Gly-Leu-(3-(2,4-dinitrophenyl)-L-2,3-diamino-propionyl)Ala-Arg-NH2 as substrate preincubated for 30 mins followed by substrate addition and measured by fluorescence assay
Pseudomonas aeruginosa = experiment: Antibacterial activity against Pseudomonas aeruginosa assessed as diameter of inhibition zone measured after 24 hrs by agar disc diffusion method; type: functional
Klebsiella oxytoca = experiment: Antibacterial activity against Klebsiella oxytoca assessed as diameter of inhibition zone measured after 24 hrs by agar disc diffusion method; type: functional
Escherichia coli [2] = experiment: Antibacterial activity against Escherichia coli BL21(DE3) assessed as diameter of inhibition zone measured after overnight incubation by agar disc diffusion method; type: functional
Escherichia coli [3] = experiment: Inhibition of Escherichia coli LpxC C63A mutant at 200 uM using UDP-3-O-[(R)-3-hydroxymyristoyl]-N-acetylglucosamine as substrate measured after 30 mins by fluorescence based microplate assay
Escherichia coli [4] = experiment: Antibacterial activity against Escherichia coli BL21(DE3) measured after 20 hrs by microdilution method; type: functional
Proteus vulgaris = experiment: Antibacterial activity against Proteus vulgaris assessed as diameter of inhibition zone measured after 24 hrs by agar disc diffusion method; type: functional
Escherichia coli [5] = experiment: Antibacterial activity against Escherichia coli D22 measured after 20 hrs by microdilution method; type: functional; details: D22, 20 h
Citrobacter freundii = experiment: Antibacterial activity against Citrobacter freundii assessed as diameter of inhibition zone measured after 24 hrs by agar disc diffusion method; type: functional
Klebsiella aerogenes = experiment: Antibacterial activity against Enterobacter aerogenes assessed as diameter of inhibition zone measured after 24 hrs by agar disc diffusion method; type: functional
Proteus mirabilis = experiment: Antibacterial activity against Proteus mirabilis assessed as diameter of inhibition zone measured after 24 hrs by agar disc diffusion method; type: functional
Escherichia coli [6] = experiment: Antibacterial activity against Escherichia coli D22 assessed as diameter of inhibition zone measured after overnight incubation by agar disc diffusion method; type: functional
[7] = biological target: Matrix metalloproteinase-9 (Homo sapiens, UniProt P14780); experiment: Inhibition of human MMP9 using (7-methoxycoumarin-4-yl)acetyl-Pro-Leu-Gly-Leu-(3-(2,4-dinitrophenyl)-L-2,3-diamino-propionyl)Ala-Arg-NH2 as substrate preincubated for 30 mins followed by substrate addition and measured by fluorescence assay
Sequence of Matrix metalloproteinase-9 (P14780 whole entry): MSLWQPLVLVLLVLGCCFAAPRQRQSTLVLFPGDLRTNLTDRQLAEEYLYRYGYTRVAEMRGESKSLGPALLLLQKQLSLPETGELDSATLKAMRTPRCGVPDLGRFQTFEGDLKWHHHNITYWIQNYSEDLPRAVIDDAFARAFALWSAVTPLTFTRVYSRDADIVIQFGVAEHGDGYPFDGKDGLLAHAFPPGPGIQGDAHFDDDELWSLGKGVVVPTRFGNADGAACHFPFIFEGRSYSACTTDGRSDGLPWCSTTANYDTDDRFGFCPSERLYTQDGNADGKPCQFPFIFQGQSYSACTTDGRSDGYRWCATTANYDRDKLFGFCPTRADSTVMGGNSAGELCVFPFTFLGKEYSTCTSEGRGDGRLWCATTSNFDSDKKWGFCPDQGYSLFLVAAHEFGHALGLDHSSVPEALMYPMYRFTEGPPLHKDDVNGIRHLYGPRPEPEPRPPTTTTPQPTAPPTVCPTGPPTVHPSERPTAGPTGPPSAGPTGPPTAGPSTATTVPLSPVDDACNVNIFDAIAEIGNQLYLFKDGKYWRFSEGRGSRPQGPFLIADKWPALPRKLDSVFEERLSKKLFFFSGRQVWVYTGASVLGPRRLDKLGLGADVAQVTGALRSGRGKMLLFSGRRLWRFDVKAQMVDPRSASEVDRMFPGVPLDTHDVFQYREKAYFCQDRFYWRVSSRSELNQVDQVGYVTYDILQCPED

[8] = Inhibition of Escherichia coli LpxC C63A mutant using UDP-3-O-[(R)-3-hydroxymyristoyl]-N-acetylglucosamine as substrate measured after 30 mins by fluorescence based microplate assay
Neutrophil collagenase = Neutrophil collagenase (Homo sapiens, UniProt P22894); experiment: Inhibition of human MMP8 using (7-methoxycoumarin-4-yl)acetyl-Pro-Leu-Gly-Leu-(3-(2,4-dinitrophenyl)-L-2,3-diamino-propionyl)Ala-Arg-NH2 as substrate preincubated for 30 mins followed by substrate addition and measured by fluorescence assay
Sequence of Neutrophil collagenase (P22894 whole entry): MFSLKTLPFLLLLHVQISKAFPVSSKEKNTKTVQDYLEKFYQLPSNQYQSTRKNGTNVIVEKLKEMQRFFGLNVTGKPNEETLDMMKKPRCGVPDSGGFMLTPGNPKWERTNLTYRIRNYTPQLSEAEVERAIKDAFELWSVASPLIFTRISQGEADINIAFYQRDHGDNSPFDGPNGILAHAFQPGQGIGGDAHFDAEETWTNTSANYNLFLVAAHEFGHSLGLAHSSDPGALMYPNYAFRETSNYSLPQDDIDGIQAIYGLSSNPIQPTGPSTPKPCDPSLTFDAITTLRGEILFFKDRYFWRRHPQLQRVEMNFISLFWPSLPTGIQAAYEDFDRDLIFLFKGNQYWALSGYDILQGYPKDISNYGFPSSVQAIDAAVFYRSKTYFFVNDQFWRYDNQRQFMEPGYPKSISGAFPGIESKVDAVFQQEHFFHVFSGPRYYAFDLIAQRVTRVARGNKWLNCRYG

[9] = Selectivity ratio of IC50 for human MMP8 to IC50 for human MMP2; type: ADME
[10] = Selectivity ratio of IC50 for human MMP9 to IC50 for human MMP13; type: ADME
MMP-2/MMP-9 = MMP-2/MMP-9 (Homo sapiens, UniProt P08253+P14780); experiment: Selectivity ratio of IC50 for human MMP9 to IC50 for human MMP2; type: ADME
[11] = Selectivity ratio of IC50 for human MMP8 to IC50 for human MMP13; type: ADME

SMILES	diameter of the inhibition zone (DIZ) (Klebsiella pneumoniae)	pIC50 [1]	diameter of the inhibition zone (DIZ) (Enterobacter cloacae)	pIC50 (Collagenase 3)	diameter of the inhibition zone (DIZ) (Pseudomonas aeruginosa)	diameter of the inhibition zone (DIZ) (Klebsiella oxytoca)	diameter of the inhibition zone (DIZ) (Escherichia coli [2])	inhibition (Escherichia coli [3])	MIC (Escherichia coli [4])	diameter of the inhibition zone (DIZ) (Proteus vulgaris)	MIC (Escherichia coli [5])	diameter of the inhibition zone (DIZ) (Citrobacter freundii)	diameter of the inhibition zone (DIZ) (Klebsiella aerogenes)	diameter of the inhibition zone (DIZ) (Proteus mirabilis)	diameter of the inhibition zone (DIZ) (Escherichia coli [6])	pIC50 [7]	pIC50 [8]	pKi [8]	pIC50 (Neutrophil collagenase)	other results
O=C(NO)[C@H]1[C@H](O)[C@H](O)CN1C(=O)c1ccc(C#Cc2ccc(CN3CCSCC3)cc2)cc1	<6 mm	< 5.00	<6 mm	5.30	<6 mm	7 mm	<6 mm	inactive	> 256 µM	<6 mm	128 µM (≈ 61.6 µg/mL)	<6 mm	<6 mm	<6 mm	8.3 mm	< 5.00	< 3.70	< 4.56	–	–
O=C(NO)[C@H]1[C@H](O)[C@H](O)CN1C(=O)c1ccc(C#Cc2ccc(CN3CCOCC3)cc2)cc1	<6 mm	< 5.00	<6 mm	5.36	<6 mm	8 mm	<6 mm	inactive	> 256 µM	<6 mm	> 256 µM	<6 mm	<6 mm	<6 mm	<6 mm	< 5.00	< 3.70	< 4.56	< 5.00	–
O=C(NO)[C@@H]1[C@H](O)[C@H](O)CN1C(=O)c1ccc(C#Cc2ccc(CN3CCOCC3)cc2)cc1	–	7.49	–	7.41	–	–	<6 mm	–	128 µM (≈ 59.6 µg/mL)	–	16 µM (≈ 7.45 µg/mL)	–	–	–	18 mm	5.74	5.60	6.47	6.76	Ratio IC50 [9]: 4 to 5; Ratio IC50 [10]: 51; Ratio IC50 (MMP-2/MMP-9): 51; Ratio IC50 [11]: 4 to 5
